Here are results for six compounds from patent publication US8501784B2, “2-pyridone derivatives as neutrophil elastase inhibitors and their use” (Astrazeneca AB, priority 2003, dated 2013).

The test concerns the target T1, Human Neutrophil Elastase (Homo sapiens, UniProt P08246).
T1 construct: Human Neutrophil Elastase (FINE) purified from serum (Calbiochem art. 324681); purchased Calbiochem 324681; host or cells: natural enzyme, purified from serum
T1 sequence (P08246 30-267): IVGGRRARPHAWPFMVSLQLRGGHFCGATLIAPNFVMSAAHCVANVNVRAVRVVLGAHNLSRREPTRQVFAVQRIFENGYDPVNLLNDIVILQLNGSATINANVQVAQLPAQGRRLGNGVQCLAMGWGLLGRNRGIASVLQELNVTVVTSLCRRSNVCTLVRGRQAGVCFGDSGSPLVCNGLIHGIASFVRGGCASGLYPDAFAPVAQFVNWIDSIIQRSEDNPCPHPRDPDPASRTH
Put plainly: Human Neutrophil Elastase Quenched-FRET Assay. To be noted: HNE purified from serum; substrate MeOSuc-AAPV-AMC; 15 min preincubation, 30 min incubation at room temperature; read-out: Inhibition of Human Neutrophil Elastase IC50. The class given is biochemical. As for the experimental part: Human Neutrophil Elastase Quenched-FRET Assay
HNE was stored in 50 mM NaOAc, 200 mM NaCl, pH 5.5 with added 30% glycerol at −20° C. […] The substrate was stored in DMSO at −20° C. […] The assay buffer constitution was: 100 mM Tris (pH 7.5) and 500 mM NaCl. The enzyme and the compounds were incubated at room temperature for 15 minutes. Then 30 μl substrate in assay buffer was added. The assay was stopped after 30 minutes incubation at room temperature by adding 60 μl stop solution (140 mM acetic acid, 200 mM sodium monochloroacetate, 60 mM sodium acetate, pH 4.3).
The IC50 is the concentration that inhibits the measured activity by half. With `Cc1c(-c2ccccc2)cc(C(=O)NCc2ccc(S(C)(=O)=O)cc2)c(=O)n1-c1cccc(C(F)(F)F)c1` [Example 1, 6-Methyl-N-[4-(methylsulfonyl)benzyl]-2-oxo-5-phenyl-1-[3-(trifluoromethyl)phenyl]-1,2-dihydropyridine-3-carboxamide], the IC50 is 47 nM.

Take `Cc1c(-c2ccoc2)cc(C(=O)NCc2ccc(S(C)(=O)=O)cc2)c(=O)n1-c1cccc(C(F)(F)F)c1` [Example 2, 5-Furan-3-yl-6-methyl-2-oxo-1-(3-trifluoromethyl-phenyl)-1,2-dihydro-pyridine-3-carboxylic acid 4-methanesulfonyl-benzylamide]: the IC50 stood at 46 nM. For `COc1ncc(-c2cc(C(=O)NCc3ccc(S(C)(=O)=O)cc3)c(=O)n(-c3cccc(C(F)(F)F)c3)c2C)cn1` [Example 5, 5-(2-Methoxypyrimidin-5-yl)-6-methyl-N-[4-(methylsulfonyl)benzyl]-2-oxo-1-[3-(trifluoromethyl)phenyl]-1,2-dihydropyridine-3-carboxamide] the value was 48 nM.

As for `Cc1noc(C)c1-c1cc(C(=O)NCc2ccc(S(=O)(=O)C(C)C)cc2)c(=O)n(-c2cccc(C(F)(F)F)c2)c1C` [Example 32, 5-(3,5-Dimethylisoxazol-4-yl)-N-[4-(isopropylsulfonyl)benzyl]-6-methyl-2-oxo-1-[3-(trifluoromethyl)phenyl]-1,2-dihydropyridine-3-carboxamide], the IC50 worked out at 3 nM. As to `Cc1nnc(-c2cc(C(=O)NCc3ccc(S(=O)(=O)C4CC4)cc3)c(=O)n(-c3cccc(C(F)(F)F)c3)c2C)o1` [Example 46, N-[4-(Cyclopropylsulfonyl)benzyl]-6-methyl-5-(5-methyl-1,3,4-oxadiazol-2-yl)-2-oxo-1-[3-(trifluoromethyl)phenyl]-1,2-dihydropyridine-3-carboxamide], the IC50 was found to be 7 nM. `Cc1cc(CNC(=O)c2cc(-c3ccnn3C)c(C)n(-c3cccc(C(F)(F)F)c3)c2=O)on1` [Example 91, 6-Methyl-5-(2-methyl-2H-pyrazol-3-yl)-2-oxo-1-(3-trifluoromethyl-phenyl)-1,2-dihydro-pyridine-3-carboxylic acid (3-methyl-isoxazol-5-ylmethyl)-amide]: the IC50 came out at 12 nM.
